Measurements as given in patent publication US10300107B2, “Compositions and methods for CaMKII inhibitors and uses thereof” (THE REGENTS OF THE UNIVERSITY OF COLORADO, priority 2007, dated 2019).
Where “and” joins values, the source holds several entries; their conditions need not be identical. Equal values may be shown once. Where no end group is shown, it is not given here.

Columns and labels:
Format in all cases: biochemical
CaMKII = system: CaMKII
Procedure: CaMKII activity assays. Standard CaMKII assays were done for 1 min at 30° C. previously described, with 20 nM CaMKII (subunit, not holoenzyme concentration), 50 mM PIPES pH 7.2, 0.1 mg/ml BSA, 10 mM MgCl2, 100 μM [γ-^32P] ATP (˜1 Ci/mmol), 1 mM CaCl2, 1-2 μM CaM, and 30-60 μM AC2 peptide (or syntide2). The reactions were spotted onto Whatman P81 phosphocellulose paper rectangles (˜2×2.5 cm). To remove free radioactivity, the paper rectangles were rinsed and washed for 30 min under agitation in 0.5% phosphoric acid or water. […] Radioactivity of the bound peptides was quantified in a Beckman 6000TA scintillation counter by the Cherenkov method. Any changes of the standard protocol were done as indicated. For assays of the GFP-CaMKIIα mutants, kinase amounts were normalized by GFP fluorescence in the extract, and total protein was adjusted with Cos-7 extracts.

CaMKIV = CaMKIV (Homo sapiens, UniProt Q16566); test: Kinase panel: CaMKIV; settings: 5 μM
Procedure: (§2) Kinase panels. A panel of different kinases was tested utilizing a kinase profiling service (Upstate Biotechnology).

PKC = PKC (Homo sapiens, UniProt P17252); test: Kinase panel: PKC; settings: 5 μM
Procedure: as §2

CaMKI = CaMKI (Homo sapiens, UniProt Q14012); test: CaMKI activity / inhibition
Source text: For curve fit, the Hill coefficient was set as 1.

protein kinase A (PKA) = protein kinase A (PKA) (Homo sapiens, UniProt P17612); test: Kinase panel for CN19o: PKA; settings: 5 μM
Procedure: (§1) Additionally, CN19o was tested for effects on a panel of other kinases (see for example FIG. 25B). This panel included other CaM kinase family members (CaMKIV, DAPK1, AMPK) and other basophilic multifunctional kinases (protein kinase A (PKA) and protein kinase C (PKC)). […] Thus, CN19o (SEQ ID NO: 24) inhibits CaMKII both with remarkable potency and high selectivity.

DAPK1 = DAPK1 (Homo sapiens, UniProt P53355); test: Kinase panel for CN19o: DAPK1; settings: 5 μM
Procedure: as §1

AMPK = test: Kinase panel for CN19o: AMPK; settings: 5 μM
Procedure: as §1

CaMKI, sequence (Q14012 whole entry, species assumed): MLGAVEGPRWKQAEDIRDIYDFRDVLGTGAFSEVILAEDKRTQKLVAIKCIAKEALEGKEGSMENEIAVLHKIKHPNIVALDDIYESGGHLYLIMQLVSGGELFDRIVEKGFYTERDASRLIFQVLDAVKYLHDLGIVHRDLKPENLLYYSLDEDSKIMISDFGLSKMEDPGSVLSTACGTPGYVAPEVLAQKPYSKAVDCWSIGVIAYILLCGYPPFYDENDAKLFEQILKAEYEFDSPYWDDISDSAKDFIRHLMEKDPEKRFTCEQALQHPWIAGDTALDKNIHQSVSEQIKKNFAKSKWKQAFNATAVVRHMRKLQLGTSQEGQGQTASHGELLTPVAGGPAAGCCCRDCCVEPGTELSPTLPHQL
DAPK1, sequence (P53355 whole entry, species assumed): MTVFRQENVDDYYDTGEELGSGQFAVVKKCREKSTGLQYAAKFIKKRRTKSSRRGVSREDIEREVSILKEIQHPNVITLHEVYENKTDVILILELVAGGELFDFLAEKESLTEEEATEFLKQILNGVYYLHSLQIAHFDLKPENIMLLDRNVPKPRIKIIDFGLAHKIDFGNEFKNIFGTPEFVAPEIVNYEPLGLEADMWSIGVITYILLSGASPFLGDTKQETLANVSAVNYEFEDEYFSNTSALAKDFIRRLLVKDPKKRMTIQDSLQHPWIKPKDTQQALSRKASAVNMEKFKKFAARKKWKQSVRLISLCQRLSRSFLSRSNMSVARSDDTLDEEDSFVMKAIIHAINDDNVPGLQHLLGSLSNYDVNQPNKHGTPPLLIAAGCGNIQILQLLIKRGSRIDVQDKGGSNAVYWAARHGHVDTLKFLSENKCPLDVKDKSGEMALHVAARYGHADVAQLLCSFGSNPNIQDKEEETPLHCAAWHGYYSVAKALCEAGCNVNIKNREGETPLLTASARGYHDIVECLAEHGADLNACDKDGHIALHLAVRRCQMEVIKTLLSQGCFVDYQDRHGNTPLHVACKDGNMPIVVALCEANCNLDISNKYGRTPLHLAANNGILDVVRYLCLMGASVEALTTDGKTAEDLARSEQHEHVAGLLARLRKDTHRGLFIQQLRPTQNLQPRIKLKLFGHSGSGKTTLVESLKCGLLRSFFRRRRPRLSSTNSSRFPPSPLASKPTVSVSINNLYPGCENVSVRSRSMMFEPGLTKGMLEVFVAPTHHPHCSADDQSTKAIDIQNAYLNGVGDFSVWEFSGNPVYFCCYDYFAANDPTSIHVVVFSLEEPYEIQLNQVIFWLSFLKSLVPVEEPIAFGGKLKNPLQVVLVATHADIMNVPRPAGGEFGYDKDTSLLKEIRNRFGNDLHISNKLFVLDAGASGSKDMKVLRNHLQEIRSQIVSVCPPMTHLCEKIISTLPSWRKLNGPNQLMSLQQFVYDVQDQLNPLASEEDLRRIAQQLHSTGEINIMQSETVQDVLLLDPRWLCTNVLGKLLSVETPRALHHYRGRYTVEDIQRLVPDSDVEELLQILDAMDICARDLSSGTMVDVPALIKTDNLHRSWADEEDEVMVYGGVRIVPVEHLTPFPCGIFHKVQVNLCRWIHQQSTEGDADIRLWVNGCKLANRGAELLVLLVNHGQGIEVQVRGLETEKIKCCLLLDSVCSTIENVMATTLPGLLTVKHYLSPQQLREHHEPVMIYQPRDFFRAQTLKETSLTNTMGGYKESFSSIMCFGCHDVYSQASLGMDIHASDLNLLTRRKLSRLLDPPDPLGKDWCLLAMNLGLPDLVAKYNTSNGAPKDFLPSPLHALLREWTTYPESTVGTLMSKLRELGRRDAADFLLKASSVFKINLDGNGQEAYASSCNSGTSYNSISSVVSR

## KRAPKLGQIGRQKAVDIED [CN19o]
CaMKII; 5 nM
  effect on CaMKII activity: blocked CaMKII activity nearly completely
CaMKII; CN19a2v background
  effect of further mutation on potency of CaMKII inhibition: increased potency even further
CaMKII; CaMKII concentration lowered to 0.1 nM, read-out: IC50 of CaMKII inhibition
  IC50: ~0.75 nM and 0.75 nM and < 1 nM
CaMKIV
  effect on kinase activity of CaMKIV: did not significantly affect
PKC
  effect on kinase activity of PKC: did not significantly affect
CaMKI
  IC50: ~38 µM
CaMKI; 5 μM
  effect on kinase activity of CaMKI: did not significantly affect
CaMKI; ratio of IC50 values
  selectivity for CaMKII vs CaMKI: about 50,000 fold
Protein kinase A (PKA)
  effect on kinase activity of PKA: did not significantly affect
DAPK1
  effect on kinase activity of DAPK1: did not significantly affect
AMPK
  effect on kinase activity of AMPK: did not significantly affect
